The target in assay [1] is T1, CAT from bovine liver (Bos taurus, UniProt P00432).
T1 construct: commercial bovine liver catalase (Sigma)
T1 sequence (P00432 2-527): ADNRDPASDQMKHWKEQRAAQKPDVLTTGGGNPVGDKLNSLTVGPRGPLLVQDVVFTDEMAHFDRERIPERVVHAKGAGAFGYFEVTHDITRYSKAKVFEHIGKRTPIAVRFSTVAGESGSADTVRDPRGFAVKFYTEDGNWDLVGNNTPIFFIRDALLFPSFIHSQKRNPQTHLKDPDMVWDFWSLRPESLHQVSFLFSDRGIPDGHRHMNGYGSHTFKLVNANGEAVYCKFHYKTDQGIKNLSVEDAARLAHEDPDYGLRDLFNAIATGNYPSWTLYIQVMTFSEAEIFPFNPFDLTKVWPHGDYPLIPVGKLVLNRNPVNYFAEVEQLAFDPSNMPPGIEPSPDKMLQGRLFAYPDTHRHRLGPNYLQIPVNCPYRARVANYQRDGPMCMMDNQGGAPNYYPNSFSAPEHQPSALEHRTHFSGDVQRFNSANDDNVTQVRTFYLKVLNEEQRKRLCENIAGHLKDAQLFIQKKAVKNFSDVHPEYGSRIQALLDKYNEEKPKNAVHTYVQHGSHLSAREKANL
The assay can be described thus: H2O2 disappearance at […] nm. The class given is biochemical. The conditions noted are these: 30 min preincubation at 25 °C; NO2-Ln concentration not given; MeOH vehicle control; regioisomer not defined.

The target of assay [2] is T2, Arabidopsis recombinant CAT2 protein (Arabidopsis thaliana, UniProt P25819).
T2 construct: commercial recombinant protein (LSBio, Life Span BioSciences); heme enzyme
T2 sequence (P25819 1-492): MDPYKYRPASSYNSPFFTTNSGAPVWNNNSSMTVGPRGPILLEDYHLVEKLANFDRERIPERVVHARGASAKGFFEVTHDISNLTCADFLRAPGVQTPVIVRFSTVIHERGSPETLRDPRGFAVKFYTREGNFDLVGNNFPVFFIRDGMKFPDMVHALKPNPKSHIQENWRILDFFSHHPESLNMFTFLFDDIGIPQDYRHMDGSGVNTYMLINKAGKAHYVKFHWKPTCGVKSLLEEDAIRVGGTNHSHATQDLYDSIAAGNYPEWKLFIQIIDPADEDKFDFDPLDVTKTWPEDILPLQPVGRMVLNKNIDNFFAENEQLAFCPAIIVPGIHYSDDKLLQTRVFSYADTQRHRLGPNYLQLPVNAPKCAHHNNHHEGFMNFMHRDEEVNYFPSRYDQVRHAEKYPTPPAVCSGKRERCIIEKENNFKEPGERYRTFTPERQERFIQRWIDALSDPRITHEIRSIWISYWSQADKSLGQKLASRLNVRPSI
The experiment in a line: H2O2 disappearance at […] nm. The conditions noted are these: 30 min preincubation at 25 °C; covalent (nitroalkylation of His); NO2-Ln concentration not given; MeOH vehicle control; regioisomer not defined. The assay is classed as biochemical.

Take NO2-Ln: the “% inhibition” value in assay [1] was found to be 60%; in assay [2], 36%.

The record behind these values is publication PMC11862108, “Nitro‐fatty acids‐mediated nitroalkylation modulates fine‐tuning catalase antioxidant function during salinity stress in plants” (Protein Science : A Publication of the Protein Society, 2025).
